In patent US20240316046A1, “ERK1/2 INHIBITOR COMBINATION THERAPY” (Asana Biosciences, LLC, priority 2021, published 2024):

Key:
[1] = system: cell lines harboring a BRAF^V600E mutation (RKO, HT-29, WiDr, MDST8, LIM2405 cells); assay: In-vitro 3D cell viability assay (CellTiter-Glo 3D), dilution matrix of compound 1 versus encorafenib, BLISS model; format: cell-based, human; settings: compound 1 combined with encorafenib, 5 days post-treatment, FIG. 1A-1E
Description: Cells were plated at a density of 1,000 (RKO, HT-29, WiDr, MDST8) or 5,000 (LIM2405) cells per well in a 96-well plate (Corning #3903). Cells were allowed to adhere overnight, and compound was added in a matrix format using a HP Tecan D300e digital dispenser (Switzerland). Compound 1 was added in a 1:3 dilution series (8-point dose response) from bottom to top of plate (rows B-H) and encorafenib was added in a 1:3 dilution series ([…] dose response) from right to left (columns 2-11). Final DMSO concentration was normalized across the plate. Cell viability was assessed 5-days post-treatment using Promega CellTiter-Glo 3D Cell Viability Assay reagent (#G9683) according to manufacturer's protocol.
RKO cells (FIG. 1A), HT-29 cells (FIG. 1B), WiDr cells (FIG. 1C), MDST8 cells (FIG. 1D), and LIM2405 (FIG. 1E) were treated with a dilution matrix of compound 1 versus encorafenib in 3D cell viability assays. Cell viability, as expressed as a percentage of viable cells relative to vehicle treated control, is shown in the matrix.

[2] = system: encorafenib refractory-BRAF^V600E RKO and WiDr CDX models; assay: In-vivo assay, tumor growth in xenograft (CDX) models; parameters: species or system Female Balb/c nude mice; settings: compound 1 combined with encorafenib, oral, FIG. 2A, 2B
Description: The vehicle/control article, 0.5% Methyl Cellulose & 0.1% Tween 80 or 100 mM acetic acid in deionized water with pH adjustment to 4.8-5.0, was prepared and stored under ambient conditions throughout the study period.
The test article compound 1 was freshly prepared in vehicle of 0.5% Methyl Cellulose & 0.1% Tween 80 weekly and stored under ambient conditions. The combination agent, encorafenib, was freshly prepared in vehicle of 0.5% CMC and 0.5% Tween 80 weekly and stored at 2-8° C.
Female Balb/c nude mice were purchased from the Beijing Vital River Laboratory Animal Technology Co., Ltd. Mice were hosted at special pathogen-free (SPF) environment of vivarium facility and acclimated to their new environment for at least 3 days prior to initiation of any experiments. Mice were between 6-8 weeks of age at the time of implantation.
RKO is a human CRC tumor cell line that harbors a BRAF^V600E mutation. The RKO cell line was purchased from the American Type Culture Collection (ATCC® CRL-2577™). RKO cells were cultured in medium containing EMEM plus 10% Fetal Bovine Serum (FBS) supplemented with non-essential amino acids at 37° C. in an atmosphere of 5% CO2 in air. RKO cells in 200 μL cell suspensions containing 2×10^6 cells mixed with 50% Matrigel were implanted into mice subcutaneously. […]

[3] = system: RAS/MAPK pathway (P-RSK, P-ERK) in BRAF V600E mutant CRC cell lines RKO and HT-29; assay: Western blot of phosphorylation of RSK (P-RSK) and ERK (P-ERK), encorafenib in combination with MEK and ERK inhibitors; format: cell-based, human; settings: plus BRAF inhibitor encorafenib; incubation up to 72 hours; Compound 1 at one-tenth the concentration used for the MEK and other ERK inhibitors; FIG. 3A-3D
Source text: Treatment of two BRAF V600E mutant CRC cell lines, RKO and HT-29, with encorafenib in combination with the MEK inhibitor binimetinib, the ERK inhibitor Compound 1, the ERK inhibitor LY3214996, and the ERK inhibitor ravoxertinib. The Western blot gels depict phosphorylation of RSK (P-RSK) and ERK (P-ERK). Higher levels of phosphorylation are depicted by higher (i.e., darker) band intensity. Total GAPDH protein (GAPDH) serves as a loading control. ERK signaling activity is represented by the phosphorylation state of RSK (P-RSK), which is a downstream target of ERK. The column values indicate the duration of compound incubation of up to 72 hours. FIG. 3A-FIG. 3D.

Structure (SMILES) | combination benefit in vitro (cell viability, BLISS model) [1] | combination benefit in vivo (tumor growth curves) [2] | RAS/MAPK pathway feedback reactivation (P-RSK, P-ERK) [3]
COC(=O)N[C@@H](C)CNc1nccc(-c2cn(C(C)C)nc2-c2cc(Cl)cc(NS(C)(=O)=O)c2F)n1 [encorafenib, Encorafenib, reference compound] | combination benefit | combination benefit | –
Cc1cnc(NC2CCOCC2)nc1-n1cnc(C(=O)N[C@H](CN)c2cc(F)cc(Cl)c2)c1 [Compound 1, (S)-N-(2-amino-1-(3-chloro-5-fluorophenyl)ethyl)-1-(5-methyl-2-((tetrahydro-2H-pyran-4-yl)amino)pyrimidin-4-yl)-1H-imidazole-4-carboxamide] | combination benefit | combination benefit | blocked the RAS/MAPK pathway feedback reactivation
